11 substances from US6323340A, “Phthalocyanine compound, method for production thereof, and near infrared absorption dye using the compound” (Nippon Shobukai Co., Ltd., priority 1999, dated 2001) can be followed below.

Series [1] is described as follows: maximum absorption wavelength and absorptivity coefficient in toluene (spectrophotometer). The class given is physicochemical. Conditions: for Absorptivity Coefficient ε: at maximum absorption wavelength. Here is the method:
By the use of a spectrophotometer (Shimadzu Seisakusho Ltd., UV-3100), the phthalocyanine compound obtained in this example [VOPc(2,5-Cl2 PhO)8 (2,6-Br2 -4-CH3 PhO)4 {Ph(CH3)CHNH}3 F] was tested for the maximum absorption wavelength and the absorptivity coefficient in toluene.

A short description of series [2]: transmittance to the visible ray of chloroform solution (JIS R3106). It counts as physicochemical. Conditions: 1 cm quartz cell, lowest transmittance at 750 to 1050 nm set to 5 to 6%.
Protocol: In a quartz cell of 1 cm, this phthalocyanine compound was diluted with chloroform until the lowest value of the transmittance at 750 to 1050 nm reached a level in the range of 5 to 6%.
Series [3] is described as follows: solubility in toluene and methylethyl ketone at room temperature. Conditions: 25° C.
Protocol: At a room temperature (25° C.), the phthalocyanine compound was gradually dissolved in each the solutions of toluene and methylethyl ketone (MEK) (each 10 ml in volume). The solutions in the process of dissolving the compound were visually examined to find the finally dissolved amounts of the compound, i.e. the concentrations (solubility) of the phthalocyanine compound as a solute in the saturated solutions.

As for “VOPc(4-CNPhO)8 (2,6-(CH3)2 PhO)4 {Ph(CH3)CHNH}3 F [Example 6]”, in series [1], the “Maximum Absorption Wavelength” value turned out to be 834 nm and the “Absorptivity Coefficient ε” value was 83000. For the same substance, in series [2], the “Transmittance to Visible Ray” value is listed as 81%. In addition, in series [3] (methylethyl ketone), the “Solubility MEK” value is reported as “.circleincircle. (a solubility of not less than 5% by weight)”. Moreover, the “Solubility Toluene” value in series [3] (toluene) is “.circleincircle. (a solubility of not less than 5% by weight)”.

For the substance “VOPc(2,5-Cl2 PhO)8 (2,6-Br2 -4-CH3 PhO)4 {Ph(CH3)CHNH}3 F [Example 1]”, in series [1], the “Maximum Absorption Wavelength” value amounted to 835 nm and the “Absorptivity Coefficient ε” value is on record as 76000. Besides, the “Transmittance to Visible Ray” value in series [2] worked out at 79%.

With “VOPc(2,5-Cl2 PhO)8 (2,6-Br2 -4-CH3 PhO)4 {PhCH2 NH}3 F [Example 2]”, in series [1], the “Maximum Absorption Wavelength” value amounted to 840 nm and the “Absorptivity Coefficient ε” value is reported as 68000. The “Transmittance to Visible Ray” value in series [2] was 81%.

“VOPc(2,5-Cl2 PhO)8 (2,6-(CH3)2 PhO)4 {Ph(CH3)CHNH}3 F [Example 3]”: in series [1], the “Maximum Absorption Wavelength” value is on record as 834 nm and the “Absorptivity Coefficient ε” value is 84000. Also, in series [2], the “Transmittance to Visible Ray” value is reported as 82%.

Take “VOPc(2,6-Cl2 PhO)8 (2,6-(CH3)2 PhO)4 {Ph(CH3)CHNH}3 F [Example 4]”: in series [1], the “Maximum Absorption Wavelength” value is on record as 835 nm and the “Absorptivity Coefficient ε” value is reported as 92000. Also, in series [2], the “Transmittance to Visible Ray” value worked out at 83%.

With “CuPc(2,5-Cl2 PhO)8 (2,6-(CH3)2 PhO)4 (PhCH2 NH)4 [Example 8]”, in series [1], the “Maximum Absorption Wavelength” value was determined as 810 nm and the “Absorptivity Coefficient ε” value is 154000. For the same substance, the “Transmittance to Visible Ray” value in series [2] is 85%.

On to “VOPc(4-CNPhO)8 (2,6-Br2 -4-CH3 PhO)4 {Ph(CH3)CHNH}3 F [Example 5]”, for which, in series [1], the “Maximum Absorption Wavelength” value is given as 836 nm and the “Absorptivity Coefficient ε” value is on record as 72000. For the same substance, the “Transmittance to Visible Ray” value in series [2] is 80%.

Turning to “VOPc(PhNH)8 (PhS)8 [Control 1, reference compound]”, the “Maximum Absorption Wavelength” value in series [1] stood at 950 nm. Also, in series [2], the “Transmittance to Visible Ray” value is reported as 50%.

For “VOPc(PhS)8 (2,6-(CH3)2 PhO)4 (PhCH2 NH)4 [Example 9]”, in series [1], the “Maximum Absorption Wavelength” value is given as 920 nm and the “Absorptivity Coefficient ε” value came to 130800. Further, the “Transmittance to Visible Ray” value in series [2] is listed as 79%.

“VOPc(2,5-Cl2 PhO)8 (2,6-(CH3)2 Pho)4 (PhCH2 NH)4 [Example 7]”: in series [1], the “Maximum Absorption Wavelength” value is on record as 880 nm and the “Absorptivity Coefficient ε” value is 128200. Besides, the “Transmittance to Visible Ray” value in series [2] is reported as 83%.

As to “octafluoro-octakisanilino oxyvanadium phthalocyanine [Control 2, reference compound]”, in series [1], the “Maximum Absorption Wavelength” value was found to be 860 nm. Moreover, the “Transmittance to Visible Ray” value in series [2] is on record as 48%.
